Test results: BigSolDB 2.1

CC(=O)c1ccc2ccccc2c1O
Conditions	solubility (mole fraction)
in cyclohexane, 292.4 K	0.0076
in cyclohexane, 296.55 K	0.0092
in cyclohexane, 300.65 K	0.0114
in cyclohexane, 304.9 K	0.014
in cyclohexane, 308.6 K	0.0173
in cyclohexane, 313.55 K	0.0222
in cyclohexane, 318.5 K	0.0285
in cyclohexane, 324.75 K	0.0382
in cyclohexane, 329.65 K	0.0511
in cyclohexane, 333.95 K	0.0679
in cyclohexane, 337.6 K	0.0872
in cyclohexane, 340.65 K	0.109
in ethanol, 289.15 K	0.0049
in ethanol, 292.6 K	0.0055
in ethanol, 296.25 K	0.0064
in ethanol, 299.95 K	0.0075
in ethanol, 304.55 K	0.0089
in ethanol, 307.95 K	0.0104
in ethanol, 310.55 K	0.0117
in ethanol, 312.9 K	0.013
in ethanol, 316.4 K	0.015
in ethanol, 319.6 K	0.0174
in ethanol, 323.4 K	0.0207
in ethanol, 327.35 K	0.025
in ethanol, 331.2 K	0.0313
in ethanol, 334.95 K	0.0399
in ethanol, 338.65 K	0.052
in ethanol, 342.25 K	0.0696
in n-butanol, 280.85 K	0.0054
in n-butanol, 285.65 K	0.0065
in n-butanol, 291.55 K	0.0084
in n-butanol, 295.65 K	0.0101
in n-butanol, 299.45 K	0.012
in n-butanol, 303.75 K	0.0144
in n-butanol, 308.25 K	0.0179
in n-butanol, 312.75 K	0.0219
in n-butanol, 318.65 K	0.0291
in n-butanol, 325.85 K	0.0431
in n-butanol, 328.95 K	0.0523
in n-butanol, 332.65 K	0.0648
in n-butanol, 335.75 K	0.0788
in n-butanol, 336.45 K	0.0831
in n-heptane, 290.65 K	0.008
in n-heptane, 295.25 K	0.0099
in n-heptane, 299.9 K	0.0123
in n-heptane, 304.65 K	0.0153
in n-heptane, 310.15 K	0.019
in n-heptane, 315.4 K	0.0239
in n-heptane, 321.65 K	0.0306
in n-heptane, 327.2 K	0.0395
in n-heptane, 332.65 K	0.05
in n-heptane, 338.55 K	0.0627
in n-heptane, 344.35 K	0.0898
in n-heptane, 348.35 K	0.116
in n-hexane, 281.65 K	0.0045
in n-hexane, 286.55 K	0.0056
in n-hexane, 289.75 K	0.0065
in n-hexane, 293.45 K	0.0077
in n-hexane, 297.35 K	0.0091
in n-hexane, 301.95 K	0.0107
in n-hexane, 305.45 K	0.0129
in n-hexane, 309.95 K	0.0156
in n-hexane, 314.25 K	0.0189
in n-hexane, 319.55 K	0.0236
in n-hexane, 324.05 K	0.0288

CC(=O)c1c(O)ccc2ccccc12
Conditions	solubility (mole fraction)
in cyclohexane, 292.9 K	0.0181
in cyclohexane, 296.6 K	0.0229
in cyclohexane, 300.7 K	0.0292
in cyclohexane, 304.8 K	0.0379
in cyclohexane, 308.85 K	0.0505
in cyclohexane, 312.6 K	0.068
in cyclohexane, 316.25 K	0.0957
in cyclohexane, 318.95 K	0.132
in cyclohexane, 320.35 K	0.162
in cyclohexane, 321.85 K	0.19
in ethanol, 285.7 K	0.0615
in ethanol, 288.9 K	0.0712
in ethanol, 293.05 K	0.0859
in ethanol, 297 K	0.104
in ethanol, 301.15 K	0.135
in ethanol, 304.55 K	0.168
in ethanol, 310.05 K	0.234
in ethanol, 314.65 K	0.321
in n-butanol, 282.55 K	0.0555
in n-butanol, 288.55 K	0.0724
in n-butanol, 293.35 K	0.0897
in n-butanol, 299 K	0.117
in n-butanol, 303.95 K	0.155
in n-butanol, 307.95 K	0.201
in n-butanol, 311.75 K	0.257
in n-butanol, 314.95 K	0.328
in n-butanol, 317.35 K	0.389
in n-butanol, 318.15 K	0.408
in n-heptane, 288.75 K	0.0133
in n-heptane, 293.15 K	0.0163
in n-heptane, 296.95 K	0.0198
in n-heptane, 301.8 K	0.0239
in n-heptane, 302.4 K	0.0245
in n-heptane, 306.55 K	0.0305
in n-heptane, 312.05 K	0.0404
in n-heptane, 317.15 K	0.056
in n-heptane, 322.05 K	0.079
in n-heptane, 326.05 K	0.115
in n-heptane, 328.45 K	0.166
in n-heptane, 329.25 K	0.214
in n-hexane, 283.75 K	0.0082
in n-hexane, 289.25 K	0.0107
in n-hexane, 295.55 K	0.0141
in n-hexane, 299.25 K	0.0175
in n-hexane, 305.2 K	0.0242
in n-hexane, 310.6 K	0.032
in n-hexane, 311.45 K	0.0339
in n-hexane, 314.8 K	0.0414
in n-hexane, 319.05 K	0.0529
in n-hexane, 323.45 K	0.0716
